According to PubChem BioAssay AID2305 (GlaxoSmithKline (GSK), 2010):
pIC50: −log10 of the molar value. Values joined by “and” are separate entries in the source; they are usually repeats but may differ in a detail not shown here. Equal entries are not always repeated.

These compounds were tested on P. falciparum 3D7 growth, pLDH absorbance (assay: blood-stage malaria parasite growth potency – strain 3D7, dose response (AID 2305)).

| SMILES | pIC50 |
| --- | --- |
| CCCN(Cc1nnc(-c2cccs2)o1)C(=O)CSc1nnnn1-c1ccc(C)c(C)c1 | 6.24 |
| NC(=NCCCc1ccccc1)c1cccc(C(N)=NCCCc2ccccc2)n1 | 5.86 |
| COc1ccc(OC)c(CC2c3ccc(Br)c(O)c3CCN2C)c1 (stereo unspecified) | 6.12 |
| CC(NC(C)c1cccc(Cl)c1)C(=O)Nc1cc(C(F)(F)F)ccc1N1CCOCC1 (stereo unspecified) | 5.96 |
| O=C(Nc1ccc(OC(F)(F)F)cc1)NC1CCN(c2ccnc3ccccc23)CC1 | 6.52 |
| COc1ccc2nccc([C@H](O)CN3CCC(NCc4cc(C)c5c(c4)OCCO5)CC3)c2n1 | 6.05 |
| Clc1ccc(Sc2cncnc2N2CCOCC2)cc1 | 7.40 |
| Cc1cc(N[C@@H](Cc2ccccc2)C(=O)NCCOc2ccccc2)nc(NCCc2ccccn2)n1 | 5.82 |
| c1cc(CN2CCN(c3ccncc3)CC2)cc(-c2ccc(-c3nc4ccccc4[nH]3)s2)c1 | 6.82 |
| Cc1nc(N)nc(N)c1CCCOc1cccc(Cl)c1 | 6.32 |
| O=C(Cn1c(SCc2cccc(F)c2F)cc(=O)c2ccccc21)N(CCCn1ccnc1)Cc1ccc(-c2ccc(C(F)(F)F)cc2)cc1 | 5.88 |
| COc1ccccc1/C=C/C(=O)N(C)C1CCN(CCCCCNC(=O)/C=C/c2ccc(Cl)c(Cl)c2)C1 (stereo unspecified) | 6.06 |
| Cn1cnc2nc(NCCc3ccccc3)nc(NCc3cccc4ccccc34)c21 | 6.48 |
| Fc1ccc2nc(-c3cccc(-c4cccc(CNCC5CCCO5)c4)c3)[nH]c2c1 (stereo unspecified) | 6.29 |
| CCn1c(SC)nnc1C1CCCN(CC(=O)Nc2nc3ccc(OC)cc3s2)C1 (stereo unspecified) | 6.12 |
| Cc1cc(N2CCCC2)nc(Nc2ccc(NC(=O)Nc3ccccc3)cc2)n1 | 6.80 |
| O=C(Nc1ccc(Cl)cc1)c1cccc(S(=O)(=O)NC2CCN(CC3CCCCC3)C2)c1 (stereo unspecified) | 6.04 |
| O=C(COc1ccccc1)N(Cc1ccc(-c2ccc(CNC3Cc4ccccc4C3)cc2)cc1)C1CCNCC1 | 5.99 |
| COc1ccc2nccc([C@@H](O)CN3CCC(NCCOc4ccc(F)cc4F)CC3)c2c1 | 6.85 |
| Cc1cccc(-n2c(Nc3ccc(C)c(Cl)c3)nc3ccc(S(=O)(=O)NC(C)C(C)C)cc32)c1 (stereo unspecified) | 6.19 |
| C=CCn1c(=N)n(CC(O)c2ccc(Cl)c(Cl)c2)c2ccccc21 (stereo unspecified) | 6.47 |
| CN(C)CC1CCCN1Cc1ccccc1-c1cnn(C)c(=O)c1Oc1cccc(C#N)c1 (stereo unspecified) | 5.87 |
| CCOc1ccc(C=CC(=O)Nc2ccc3nc(N4CCOCC4)cc(C)c3c2)cc1OC | 6.05 |
| Cc1cnc(CNCc2ccc(S(=O)(=O)Nc3ccc(Oc4cccc(Cl)c4)cc3)cc2)cn1 | 6.11 |

| SMILES | pIC50 |
| --- | --- |
| COc1ccc(CNC(=O)NC2CCN(c3ccnc(Nc4ccc(F)cc4)n3)C2)cc1 (stereo unspecified) | 6.08 |
| CC(C)CNC(=O)c1cncc(-c2ccc(CN3CCC(N4CCCC4)CC3)cc2)c1 | 6.16 |
| Cc1ccc(NC(C)C(=O)Nc2ccccc2)cc1S(=O)(=O)N1CCCCCC1 (stereo unspecified) | 7.22 |
| Oc1ccc(CCCNc2nc(NCc3ccccc3-c3ccccc3)nc(NC3CCNCC3)n2)cc1 | 6.07 |
| Cc1nc(-c2ccc(-c3ccc(NC(=O)c4coc5ccc(N6C[C@@H](C)N(C)[C@@H](C)C6)cc45)cc3)c(C)c2)no1 | 6.11 |
| CCC1CCCCN1S(=O)(=O)c1ccc(OC)c(N2CCN(C(=O)C(Cl)(Cl)Cl)CC2)c1 (stereo unspecified) | 5.95 |
| CCC[C@@H]([C@@H](CC(C)C)C(=O)N[C@@H](CCCN=C(N)NS(C)(=O)=O)C(=O)Nc1nccs1)N(O)C=O | 6.03 |
| Cn1cc(C(=O)Nc2cccc(-c3cccc(-c4nc5ccc(F)cc5[nH]4)c3)c2)n(C)c1=O | 6.41 |
| O=C(/C=C/c1ccc(C(F)(F)F)cc1)NCCCCCN1CCCN(C(=O)Nc2ccc(Cl)cc2)CC1 | 6.06 |
| Cc1cccc2[nH]c(-c3cccc(-c4ccc(NC(=O)c5ccoc5)cc4)c3)nc12 | 6.15 |
| O=C(Nc1cc(Oc2ccc(O)cc2)cc([N+](=O)[O-])c1)c1cc(-c2ccc(F)cc2)no1 | 6.02 |
| CCOc1ccc(-c2nc(NC(=O)COc3ccc(OC)cc3)sc2C)cc1 | 6.27 |
| CC(C)C(=O)NC(c1ccc(N(C)C)cc1)c1cc(Cl)c2cccnc2c1O (stereo unspecified) | 6.07 |
| Cc1cccc2[nH]c(-c3cccc(-c4cccc(NC(=O)c5ccoc5)c4)c3)nc12 | 6.66 |
| O=C(c1ccc(-c2ccc(-c3nc4ccc(C(F)(F)F)cc4[nH]3)s2)cc1)N1CCCCC1CN1CCC(O)C1 (stereo unspecified) | 6.25 |
| O=[N+]([O-])c1cccc(NC(=S)N2CCCN(Cc3ccc(Cl)cc3Cl)CC2)c1 | 6.03 |
| COc1ccc(CCNc2nc(SCc3ccccc3Cl)nc3ccccc23)cc1OC | 6.03 |
| Cc1cccc2[nH]c(-c3cccc(-c4ccc(NC(=O)C5CCCO5)cc4)c3)nc12 (stereo unspecified) | 6.05 |
| CC(C)CNCc1ccc(-c2ccc(CN(C(=O)Nc3ccccc3)C3CCN(Cc4ccccc4)CC3)cc2)cc1 | 6.17 |
| CN(CCS(C)(=O)=O)Cc1ccc(-c2ccc3ncnc(Nc4ccc(OCc5cccc(F)c5)c(Cl)c4)c3c2)o1 | 6.17 |
| CCCNC(=O)Nc1cc2cc(-c3ccc(CN4CCCC4)cc3)ccc2n2c(C)nnc12 | 5.82 |
| O=C(Nc1cccc(F)c1)N1CCC(NS(=O)(=O)c2ccc(Br)cc2)CC1 | 6.01 |
| Cc1ccc(O)cc1Nc1ccnc2cc(-c3nccs3)ccc12 | 6.06 |
| O=C(NCCCN1CCCC1=O)NCc1ccccc1 | 6.09 |

| SMILES | pIC50 |
| --- | --- |
| O=C(Nc1ccc(N2CCCCC2)c(Cl)c1)c1ccc(Br)o1 | 6.26 |
| Cc1[nH]c(C)c(-c2ccc(OCc3ccc(F)cc3)cc2)c(=O)c1Cl | 6.24 |
| COc1ccc(-c2cccc(NC(=O)c3cccc(C#N)c3)c2)cc1CN1CCNCC1 | 6.14 |
| CCCCCCc1c(C)[nH]c2cc(OC)ccc2c1=O | 6.92 |
| CCN(CCCN1CCCCC1)c1cc(C)nc(Nc2ccc(C)c(Br)c2)n1 | 6.60 |
| O=C(N[C@H]1CCN(Cc2ccc(OC3CCN(Cc4ccccc4)CC3)cc2)C1)c1ccc(Cl)c(Cl)c1 | 6.14 |
| Cc1ccc(NC(=O)c2cnc(N3CCN(c4ccncc4)CC3)c(Cl)c2)cc1 | 6.02 |
| Cc1cccc2[nH]c(-c3cccc(-c4ccc(CNCCCN5CCCC5=O)cc4)c3)nc12 | 6.02 |
| COc1ccc(Nc2nccc(NCC(O)c3ccc(C(F)(F)F)cc3)n2)cc1 (stereo unspecified) | 6.26 |
| O=C(/C=C/c1ccccc1O)N1CCC(CCN2CCC(c3c[nH]c4ccccc34)CC2)CC1 | 5.87 |
| O=C(/C=C/c1ccc(Cl)c(Cl)c1)NCCCCCN1C2CCC1CC(c1c[nH]c3ccccc13)C2 (stereo unspecified) | 6.08 |
| CCOC(=O)/C(=N\OC(C(=O)OC(C)(C)C)c1ccccc1)c1csc(NC(c2ccccc2)(c2ccccc2)c2ccccc2)n1 (stereo unspecified) | 5.95 |
| COc1ccc(C(=O)[C@H]2C[C@@H]2CN(C)CCC(O)c2ccc(Cl)c(Cl)c2)cc1 (stereo partly specified) | 6.06 |
| CCCCN(CCCC)CCCN(CCCN(CCCC)CCCC)c1cc(C)nc(Nc2ccc(Cl)cc2)n1 | 6.43 |
| Cc1cccc2[nH]c(-c3ccc(-c4cccc(CNCCCN5CCCC5=O)c4)cc3)nc12 | 6.08 |
| O=C(Nc1ccc(CN2CCOCC2)cc1)c1ccc(-c2cc(Cl)ccc2Cl)o1 | 6.21 |
| C/C=C1\CN2CC[C@H]1C[C@H]2[C@H](O)c1ccnc2ccc(OC)cc12 | 6.66 and 6.49 |
| CO/C(=C\C=C\c1cc2cc(Cl)c(Cl)cc2[nH]1)C(=O)NCCCN1CCCC[C@H]1C | 6.10 |
| Fc1ccccc1-c1cc(Nc2ccncc2)nc(-c2cccnc2)n1 | 6.59 |
| COc1ccc(CN2CCN(CCOC(c3ccccc3)c3ccccc3)CC2)c(O)c1 | 5.92 |
| O=C(Cc1cccnc1)N(Cc1ccc(-c2ccc(CNCc3cccnc3)cn2)cc1)C1CCN(Cc2ccccc2)CC1 | 6.10 |
| CCOC(=O)c1cnc2c(C(F)(F)F)cccc2c1Nc1ccc(O)cc1 | 6.20 |
| CCOc1ccc(-c2noc(-c3c[nH]c4ccccc4c3=O)n2)cc1 | 6.68 |
| COc1ccc2nccc([C@@H](O)CN3CCC(NC[C@H](Cc4ccccc4)NC(=O)OC(C)(C)C)CC3)c2c1 | 6.64 |

| SMILES | pIC50 |
| --- | --- |
| O=C(NC1CCC(CN2CCC(c3c[nH]c4ccccc34)CC2)CC1)c1csc(-c2cccc(Cl)c2Cl)n1 (stereo unspecified) | 5.76 |
| COc1cc(Cc2cnc(N)nc2N)cc(OCCCCc2ccc([N+](=O)[O-])cc2)c1OC | 6.00 |
| Cc1cccc2[nH]c(-c3cccc(-c4ccc(NC(=O)C(=O)c5cccn5C)cc4)c3)nc12 | 6.42 |
| O=C(/C=C/c1ccc(Cl)c(Cl)c1)NCCCCCN1CCCC(CNC(=O)c2sc3ccccc3c2Cl)C1 (stereo unspecified) | 6.06 |
| CCn1c(CN2CCN(Cc3ccccc3)CC2)nc2cc(NC(=O)c3cccs3)ccc21 | 6.40 |
| CN(C)CCNC(=O)c1csc(Nc2ccc(Cl)c(Cl)c2)n1 | 6.66 |
| Cc1cc(CN2CCN(CCOC(c3ccccc3)c3ccccc3)CC2)ccc1O | 6.03 |
| Cc1ccc(NC(=O)c2ccc3ncccc3c2)cc1OC1CCN(Cc2ccsc2)C1 (stereo unspecified) | 6.10 |
| C#CCNCc1ccc(-c2cccc(-c3nc4c(C)cccc4[nH]3)c2)cc1 | 6.09 |
| Cc1cc(OCCCN2CCCCC2C)ccc1NC(=O)COc1ccc(Cl)cc1C(=O)c1cc(Cl)cc(C#N)c1 (stereo unspecified) | 6.01 |
| CC(=O)c1ccc(NC(=O)Nc2ccc(N(C)c3ccnc(Nc4cccc(CS(C)(=O)=O)c4)n3)cc2)cc1 | 6.92 |
| N[C@@H](COc1cccc2c(-c3ccncc3)c(-c3cccc(NC(=O)Nc4ccccc4)c3)nn12)c1ccccc1 | 6.39 |
| CC1(C)N=C(N)NC(NOCc2ccc(Cl)c(Cl)c2)=N1 | 6.64 |
| O=C(C=Cc1ccc(Cl)c(Cl)c1)NCCCCCN1CCCC(CCCNC(=O)c2sc3ccccc3c2Cl)C1 (stereo unspecified) | 5.99 |
| O=S(=O)(c1ccccc1)n1ccc2cc(Nc3ncnc4cc(C#C[C@H]5CCCN5)sc34)ccc21 | 5.97 |
| COc1cc(Br)c(NC(=O)Nc2ccc(C(F)(F)F)c(O[C@@H]3CCN(C)C3)c2)cc1OC | 6.20 |
| COc1ccccc1CCNc1nc(C)cc(N[C@@H](CC(C)C)C(=O)Nc2ccccc2)n1 | 5.89 |
| COc1ccc2nccc([C@@H](O)CN3CC[C@H](NCc4nc5c(cc4Cl)SCC(=O)N5)[C@H](F)C3)c2c1 | 6.12 and 6.29 |
| CCNc1cc(C(=O)N[C@@H](Cc2ccccc2)[C@H](O)CNCc2cccc(-c3cncnc3)c2)cc(N2CCCC2=O)c1 | 6.18 |
| CN(C)CCCNc1ncnc2c1[nH]c1ccc(Br)cc12 | 6.49 |
| COc1c(C2CCN(CCCCNC(=O)c3ccc(-c4ccc(Cl)cc4)cn3)CC2)ccc2c1CCCC2 | 6.04 |
| Cc1cc(Cl)c(S(=O)(=O)NC2CCCC2)cc1OCC(=O)NC1CCCCC1 | 6.42 |
| CCCCNC(=O)c1[nH]c2c(NC(=O)COc3ccccc3)cccc2c1-c1cccc(NC(=O)C(N)CO)c1 (stereo unspecified) | 6.07 |
| Cc1cc(N[C@@H](Cc2ccccc2)C(=O)NC2CCCC2)nc(NCc2ccccc2C)n1 | 5.91 |
